Results: ChEMBL document CHEMBL4765421, “Synthesis of natural 3'-Prenylchalconaringenin and biological evaluation of ameliorating non-alcoholic fatty liver disease and metabolic syndrome” (Eur J Med Chem, 2020)
Calls of active or inactive are those of the source. The calls are words filed in the database; no cut-off is given here.

How the values were obtained:
HepG2 [1] = experiment: Cytotoxicity against human HepG2 cells assessed as reduction in cell viability at 10 to 20 uM by MTT assay; assay type: cell-based; conditions: hepg2, 20 µM, dose 10-20 µM
Mus musculus [2] = experiment: Hypolipidemic activity in tyloxapol-induced Kunming mouse model of hyperlipidemia assessed as kidney index at 100 mg/kg, po measured after 24 hrs (reference value: 11.20 +/- 0.58); assay type: functional
Mus musculus [3] = experiment: In vivo effect on PPAR signaling in tyloxapol-induced Kunming mouse model of hyperlipidemia assessed as increase in mTOR phosphorylation in liver at 100 mg/kg, po measured after 24 hrs by Western blot analysis; assay type: functional, organism-based
Mus musculus [4] = experiment: In vivo effect on PPAR signaling in tyloxapol-induced Kunming mouse model of hyperlipidemia assessed as increase in PPARbeta expression in liver at 100 mg/kg, po measured after 24 hrs by Western blot analysis; assay type: functional, organism-based
Mus musculus [5] = experiment: In vivo induction of AMPK in tyloxapol-induced Kunming mouse model of hyperlipidemia assessed as increase in AKT phosphorylation in liver at 100 mg/kg, po measured after 24 hrs by Western blot analysis; assay type: functional, organism-based
Mus musculus [6] = experiment: In vivo effect on PPAR signaling in tyloxapol-induced Kunming mouse model of hyperlipidemia assessed as decrease in PPARgamma expression in liver at 100 mg/kg, po measured after 24 hrs by Western blot analysis; assay type: functional, organism-based
Mus musculus [7] = experiment: Hypolipidemic activity in tyloxapol-induced Kunming mouse model of hyperlipidemia assessed as reduction in serum IL6 level at 100 mg/kg, po measured after 24 hrs; assay type: functional, organism-based
HepG2 [8] = experiment: Activation of AMPK in oleic, palmitic, linoleic and arachidonic acid 29:47:18:6 (v/v)-induced human HepG2 cells assessed as increase in ACC phosphorylation by Western blot; conditions: filed as activator
Mus musculus [9] = experiment: In vivo induction of AMPK in tyloxapol-induced Kunming mouse model of hyperlipidemia assessed as increase in AMPKalpha phosphorylation in liver at 100 mg/kg, po measured after 24 hrs by Western blot analysis; assay type: functional, organism-based
Mus musculus [10] = experiment: In vivo effect on PPAR signaling in tyloxapol-induced Kunming mouse model of hyperlipidemia assessed as decrease in PPARbeta expression in white adipose tissue at 100 mg/kg, po measured after 24 hrs by Western blot analysis; assay type: functional, organism-based
Mus musculus [11] = experiment: In vivo induction of AMPK in tyloxapol-induced Kunming mouse model of hyperlipidemia assessed as increase in ACC phosphorylation in liver at 100 mg/kg, po measured after 24 hrs by Western blot analysis; assay type: functional, organism-based
Mus musculus [12] = experiment: In vivo induction of AMPK in tyloxapol-induced Kunming mouse model of hyperlipidemia assessed as decrease in SREBP1-C expression in white adipose tissue at 100 mg/kg, po measured after 24 hrs by Western blot analysis; assay type: functional, organism-based
Mus musculus [13] = experiment: Hypolipidemic activity in tyloxapol-induced Kunming mouse model of hyperlipidemia assessed as liver index at 100 mg/kg, po measured after 24 hrs (reference value: 65.00 +/- 0.87); assay type: functional
Mus musculus [14] = experiment: Hypolipidemic activity in tyloxapol-induced Kunming mouse model of hyperlipidemia assessed as reduction in serum total cholesterol level at 100 mg/kg, po measured after 24 hrs; assay type: functional, organism-based
Mus musculus [15] = experiment: Hypolipidemic activity in tyloxapol-induced Kunming mouse model of hyperlipidemia assessed as spleen index at 100 mg/kg, po measured after 24 hrs (reference value: 3.87 +/- 0.05); assay type: functional
Mus musculus [16] = experiment: In vivo induction of AMPK in tyloxapol-induced Kunming mouse model of hyperlipidemia assessed as decrease in SREBP1-C expression in liver at 100 mg/kg, po measured after 24 hrs by Western blot analysis; assay type: functional, organism-based
Mus musculus [17] = experiment: In vivo effect on PPAR signaling in tyloxapol-induced Kunming mouse model of hyperlipidemia assessed as decrease in PPARgamma expression in white adipose tissue at 100 mg/kg, po measured after 24 hrs by Western blot analysis; assay type: functional, organism-based
Mus musculus [18] = experiment: In vivo induction of AMPK in tyloxapol-induced Kunming mouse model of hyperlipidemia assessed as increase in CPT-1A phosphorylation in white adipose tissue at 100 mg/kg, po measured after 24 hrs by Western blot analysis; assay type: functional, organism-based
Mus musculus [19] = experiment: In vivo induction of AMPK in tyloxapol-induced Kunming mouse model of hyperlipidemia assessed as increase in CPT-1A phosphorylation in liver at 100 mg/kg, po measured after 24 hrs by Western blot analysis; assay type: functional, organism-based
Mus musculus [20] = experiment: In vivo induction of AMPK in tyloxapol-induced Kunming mouse model of hyperlipidemia assessed as increase in AKT phosphorylation in white adipose tissue at 100 mg/kg, po measured after 24 hrs by Western blot analysis; assay type: functional, organism-based
Mus musculus [21] = experiment: Hypolipidemic activity in tyloxapol-induced Kunming mouse model of hyperlipidemia assessed as reduction in serum AST level at 100 mg/kg, po measured after 24 hrs; assay type: functional, organism-based
Mus musculus [22] = experiment: In vivo induction of AMPK in tyloxapol-induced Kunming mouse model of hyperlipidemia assessed as increase in AMPKalpha phosphorylation in white adipose tissue at 100 mg/kg, po measured after 24 hrs by Western blot analysis; assay type: functional, organism-based
Mus musculus [23] = experiment: Hypolipidemic activity in tyloxapol-induced Kunming mouse model of hyperlipidemia assessed as epididymis white adipose tissue index at 100 mg/kg, po measured after 24 hrs (reference value: 23.43 +/- 3.10); assay type: functional
Mus musculus [24] = experiment: Hypolipidemic activity in tyloxapol-induced Kunming mouse model of hyperlipidemia assessed as increase in appearance of hepatic lobules at 100 mg/kg, po measured after 24 hrs by Oil Red O staining based assay; assay type: functional, organism-based
HepG2 [25] = experiment: Activation of AMPK in oleic, palmitic, linoleic and arachidonic acid 29:47:18:6 (v/v)-induced human HepG2 cells assessed as increase in AMPK phosphorylation by Western blot; conditions: filed as activator
Mus musculus [26] = experiment: Hypolipidemic activity in tyloxapol-induced Kunming mouse model of hyperlipidemia assessed as perirenal white adipose tissue index at 100 mg/kg, po measured after 24 hrs (reference value: 18.14 +/- 1.44); assay type: functional
Mus musculus [27] = experiment: Hypolipidemic activity in tyloxapol-induced Kunming mouse model of hyperlipidemia assessed as reduction in serum LDL level at 100 mg/kg, po measured after 24 hrs; assay type: functional, organism-based
Mus musculus [28] = experiment: Hypolipidemic activity in tyloxapol-induced Kunming mouse model of hyperlipidemia assessed as reduction in serum triglyceride level at 100 mg/kg, po measured after 24 hrs; assay type: functional, organism-based
Mus musculus [29] = experiment: In vivo effect on PPAR signaling in tyloxapol-induced Kunming mouse model of hyperlipidemia assessed as increase in PPARalpha expression in white adipose tissue at 100 mg/kg, po measured after 24 hrs by Western blot analysis; assay type: functional, organism-based
Mus musculus [30] = experiment: Hypolipidemic activity in tyloxapol-induced Kunming mouse model of hyperlipidemia assessed as reduction in fatty liver phenotype at 100 mg/kg, po measured after 24 hrs; assay type: functional, organism-based
Mus musculus [31] = experiment: Hypolipidemic activity in tyloxapol-induced Kunming mouse model of hyperlipidemia assessed as reduction in serum ALT level at 100 mg/kg, po measured after 24 hrs; assay type: functional, organism-based
Mus musculus [32] = experiment: In vivo induction of AMPK in tyloxapol-induced Kunming mouse model of hyperlipidemia assessed as decrease in FAS expression in liver at 100 mg/kg, po measured after 24 hrs by Western blot analysis; assay type: functional, organism-based
Mus musculus [33] = experiment: Hypolipidemic activity in tyloxapol-induced Kunming mouse model of hyperlipidemia assessed as reduction in lipid level in liver at 100 mg/kg, po measured after 24 hrs by Oil Red O staining based assay; assay type: functional, organism-based
Mus musculus [34] = experiment: In vivo induction of AMPK in tyloxapol-induced Kunming mouse model of hyperlipidemia assessed as increase in ACC phosphorylation in white adipose tissue at 100 mg/kg, po measured after 24 hrs by Western blot analysis; assay type: functional, organism-based
Mus musculus [35] = experiment: In vivo induction of AMPK in tyloxapol-induced Kunming mouse model of hyperlipidemia assessed as decrease in FAS expression in white adipose tissue at 100 mg/kg, po measured after 24 hrs by Western blot analysis; assay type: functional, organism-based
Mus musculus [36] = experiment: In vivo effect on PPAR signaling in tyloxapol-induced Kunming mouse model of hyperlipidemia assessed as increase in PPARalpha expression in liver at 100 mg/kg, po measured after 24 hrs by Western blot analysis; assay type: functional, organism-based
Mus musculus [37] = experiment: In vivo effect on PPAR signaling in tyloxapol-induced Kunming mouse model of hyperlipidemia assessed as increase in mTOR phosphorylation in white adipose tissue at 100 mg/kg, po measured after 24 hrs by Western blot analysis; assay type: functional, organism-based
3T3-L1 [38] = experiment: Hypolipidemic activity in mouse 3T3-L1 mature adipocytes assessed as reduction in lipid content at 10 uM by Oil Red O staining based assay relative to control; assay type: functional; parameters: scale not given: the % may be the effect or the level left
HepG2 [39] = experiment: Hypolipidemic activity in oleic, palmitic, linoleic and arachidonic acid 29:47:18:6 (v/v)-induced hyperlipidemia in human HepG2 cells assessed as reduction in lipid content at 10 uM by Oil Red O staining based assay relative to control; assay type: functional; parameters: scale not given: the % may be the effect or the level left
3T3-L1 [40] = experiment: Hypolipidemic activity in mouse 3T3-L1 preadipocytes assessed as reduction in lipid content at 10 uM by Oil Red O staining based assay relative to control; assay type: functional; parameters: scale not given: the % may be the effect or the level left

O=C(/C=C/c1ccc(O)cc1)c1c(O)cc(O)cc1O [4,2',4',6'-TETRAHYDROXYCHALCONE]
Activity (HepG2 [1]): Non-Toxic

NC(=O)c1ncn([C@@H]2O[C@H](CO)[C@@H](O)[C@H]2O)c1N [ACADESINE]
Activity_index (Mus musculus [2]): 8.64 | Activity (Mus musculus [3]): Active | Activity (Mus musculus [4]): Active | Activity (Mus musculus [5]): Active | Activity (Mus musculus [6]): Active | Activity (Mus musculus [7]): Active | Activity (HepG2 [8]): Active | Activity (Mus musculus [9]): Active | Activity (Mus musculus [10]): Active | Activity (Mus musculus [11]): Active | Activity (Mus musculus [12]): Active | Activity_index (Mus musculus [13]): 57.41 | Activity (Mus musculus [14]): Active | Activity_index (Mus musculus [15]): 3.01 | Activity (Mus musculus [16]): Active | Activity (Mus musculus [17]): Active | Activity (Mus musculus [18]): Active | Activity (Mus musculus [19]): Active | Activity (Mus musculus [20]): Active | Activity (Mus musculus [21]): Active | Activity (Mus musculus [22]): Active | Activity_index (Mus musculus [23]): 20.09 | Activity (Mus musculus [24]): Active | Activity (HepG2 [25]): Active | Activity_index (Mus musculus [26]): 15.94 | Activity (Mus musculus [27]): Active | Activity (Mus musculus [28]): Active | Activity (Mus musculus [29]): Active | Activity (Mus musculus [30]): Active | Activity (Mus musculus [31]): Active | Activity (Mus musculus [32]): Active | Activity (Mus musculus [33]): Active | Activity (Mus musculus [34]): Active | Activity (Mus musculus [35]): Active | Activity (Mus musculus [36]): Active | Activity (Mus musculus [37]): Active

CC(C)=CCc1c(O)cc(O)c(C(=O)/C=C/c2ccc(O)cc2)c1O [DEMETHYLXANTHOHUMOL]
Activity (HepG2 [1]): Non-Toxic

CC(C)OC(=O)C(C)(C)Oc1ccc(C(=O)c2ccc(Cl)cc2)cc1 [FENOFIBRATE]
Activity_index (Mus musculus [2]): 9.65 | Activity (Mus musculus [3]): Active | Activity (Mus musculus [4]): Active | Activity (Mus musculus [5]): Active | Activity (Mus musculus [6]): Active | Activity (Mus musculus [7]): Active | Activity (Mus musculus [9]): Active | Activity (Mus musculus [10]): Active | Activity (Mus musculus [11]): Active | Activity (Mus musculus [12]): Active | Activity_index (Mus musculus [13]): 56.59 | Activity (Mus musculus [14]): Active | Activity_index (Mus musculus [15]): 2.85 | Activity (Mus musculus [16]): Active | Activity (Mus musculus [17]): Active | Activity (Mus musculus [18]): Active | Activity (Mus musculus [19]): Active | Activity (Mus musculus [20]): Active | Activity (Mus musculus [21]): Active | Activity (Mus musculus [22]): Active | Activity_index (Mus musculus [23]): 15.43 | Activity (Mus musculus [24]): Active | Activity_index (Mus musculus [26]): 14.55 | Activity (Mus musculus [27]): Active | Activity (Mus musculus [28]): Active | Activity (Mus musculus [29]): Active | Activity (Mus musculus [30]): Active | Activity (Mus musculus [31]): Active | Activity (Mus musculus [32]): Active | Activity (Mus musculus [33]): Active | Activity (Mus musculus [34]): Active | Activity (Mus musculus [35]): Active | Activity (Mus musculus [36]): Active | Activity (Mus musculus [37]): Active

CC[C@H](C)C(=O)O[C@H]1C[C@@H](C)C=C2C=C[C@H](C)[C@H](CC[C@@H]3C[C@@H](O)CC(=O)O3)[C@H]21 [LOVASTATIN]
Activity (3T3-L1 [38]): 47.2% | Activity (HepG2 [39]): 41.17% | Activity (3T3-L1 [40]): 67.14%
